Results as given in US20070105890A1, “Novel condensed imidazole derivative” (DAINIPPON SUMITOMO PHARMA CO., LTD, priority 2003, published 2007).
Where a name gives a salt, the structure may show the parent alone.

Each compound was assayed against T1, DPP-IV enzyme (Bos taurus, UniProt P81425) (assay: In Vitro DPP-IV Inhibitory Effect Measurement Test (1), bovine plasma). Details: substrate Glycyl-L-Proline 4-Methyl-Coumaryl-7-Amide, Table 1.
T1 construct: Bovine plasma containing DPP-IV enzyme was diluted with assay buffer; from tissue; host or cells: bovine plasma
T1 sequence (P81425 38-765 limits assumed): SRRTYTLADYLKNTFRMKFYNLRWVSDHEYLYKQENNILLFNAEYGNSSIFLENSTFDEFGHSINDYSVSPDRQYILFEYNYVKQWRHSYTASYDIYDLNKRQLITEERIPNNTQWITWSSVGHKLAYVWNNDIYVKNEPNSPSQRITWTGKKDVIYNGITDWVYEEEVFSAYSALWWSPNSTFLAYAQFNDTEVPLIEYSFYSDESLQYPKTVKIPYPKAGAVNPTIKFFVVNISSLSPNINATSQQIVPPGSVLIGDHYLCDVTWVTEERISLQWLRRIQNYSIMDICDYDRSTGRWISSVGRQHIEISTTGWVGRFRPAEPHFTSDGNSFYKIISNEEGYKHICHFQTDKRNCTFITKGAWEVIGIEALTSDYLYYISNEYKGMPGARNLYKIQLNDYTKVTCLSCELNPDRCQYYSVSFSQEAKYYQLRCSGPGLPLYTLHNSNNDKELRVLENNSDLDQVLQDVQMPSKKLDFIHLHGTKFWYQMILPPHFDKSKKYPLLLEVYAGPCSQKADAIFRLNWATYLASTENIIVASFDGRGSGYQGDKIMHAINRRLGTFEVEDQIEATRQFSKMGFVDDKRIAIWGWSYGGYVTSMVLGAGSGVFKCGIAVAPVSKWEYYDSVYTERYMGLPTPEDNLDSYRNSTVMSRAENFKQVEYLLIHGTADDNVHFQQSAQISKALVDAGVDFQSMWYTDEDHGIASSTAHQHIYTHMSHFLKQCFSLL
Format: biochemical
Description: In Vitro DPP-IV Inhibitory Effect Measurement Test (1)
Bovine plasma containing DPP-IV enzyme was diluted with assay buffer (25 mM Tris-HCl, 140 mM NaCl, 10 mM KCl, pH=7.9) and 50 μL of the dilution was added to a micro assay plate. After 1 μL of a solution of each compound was added, mixing was conducted, followed by incubation at room temperature. A substrate (Glycyl-L-Proline 4-Methyl-Coumaryl-7-Amide, Peptide Laboratories Co., Ltd.) was diluted to 0.2 mM with the assay buffer, and 50 μL of this solution was added and then stirred, followed by incubation at room temperature. Thereafter, the reaction was terminated by the addition of 100 μL of a 25% aqueous acetic acid solution. The intensity of fluorescence at an excitation wavelength of 360 nm and a measuring wavelength of 460 nm was measured by the use of a fluorescent plate reader. The difference in intensity of fluorescence between a background well in which the reaction had been terminated by previously adding a 25% aqueous acetic acid solution before the addition of the substrate solution and a control well to which no compound had been added was taken as 100%. The intensity of fluorescence of a well containing the compound was interpolated and the residual enzyme activity in the case of the addition of the compound was calculated as a relative value.
(§1) Compounds of Examples were used in this test.

Structure (SMILES)	IC50
Cn1c(C#N)cc2nc(N3CCC[C@@H](N)C3)n(Cc3ccccc3Cl)c2c1=O [Example 2, 2-[(3R)-3-Aminopiperidin-1-yl]-3-(2-chlorobenzyl)-5-methyl-4-oxo-4,5-dihydro-3H-imidazo[4,5-c]pyridine-6-carbonitrile hydrochloride]	11 nM
Cn1ccc2nc(N3CCC[C@@H](N)C3)n(Cc3ccccc3Cl)c2c1=O [Example 4, 2-[(3R)-3-Aminopiperidin-1-yl]-3-(2-chlorobenzyl)-5-methyl-3,5-dihydro-4H-imidazo[4,5-c]pyridin-4-one]	68 nM
N[C@@H]1CCCN(c2nc3ccn(CC(=O)c4ccccc4)c(=O)c3n2Cc2ccccc2Cl)C1 [Example 7]	1.4 nM
Cn1ccc2nc(N3CCC[C@@H](N)C3)n(Cc3cc(F)ccc3Cl)c2c1=O [Example 11]	44 nM
N[C@@H]1CCCN(c2nc3cc(C(=O)O)[nH]c(=O)c3n2Cc2ccccc2Cl)C1 [Example 13]	5 nM
N[C@@H]1CCCN(c2nc3ccn(-c4cccc(F)c4)c(=O)c3n2Cc2ccccc2Cl)C1 [Example 30]	203 nM
COc1cccc(CC(=O)c2cc3nc(N4CCC[C@@H](N)C4)n(Cc4ccccc4Cl)c3c(=O)n2C)c1 [Example 38]	112 nM

The compounds below were run against T2, DPP-IV enzyme (Homo sapiens, UniProt P27487) (assay: In Vitro DPP-IV Inhibitory Effect Measurement Test (2), human serum). Details: DPP-IV in human serum (diluted 10-fold); substrate Glycyl-L-Proline 4-Methyl-Coumaryl-7-Amide 100 μM; Table 2.
T2 construct: Human serum containing DPP-IV enzyme was used in an experiment after being diluted with assay buffer; from tissue; host or cells: human serum
T2 sequence (P27487 39-766 limits assumed): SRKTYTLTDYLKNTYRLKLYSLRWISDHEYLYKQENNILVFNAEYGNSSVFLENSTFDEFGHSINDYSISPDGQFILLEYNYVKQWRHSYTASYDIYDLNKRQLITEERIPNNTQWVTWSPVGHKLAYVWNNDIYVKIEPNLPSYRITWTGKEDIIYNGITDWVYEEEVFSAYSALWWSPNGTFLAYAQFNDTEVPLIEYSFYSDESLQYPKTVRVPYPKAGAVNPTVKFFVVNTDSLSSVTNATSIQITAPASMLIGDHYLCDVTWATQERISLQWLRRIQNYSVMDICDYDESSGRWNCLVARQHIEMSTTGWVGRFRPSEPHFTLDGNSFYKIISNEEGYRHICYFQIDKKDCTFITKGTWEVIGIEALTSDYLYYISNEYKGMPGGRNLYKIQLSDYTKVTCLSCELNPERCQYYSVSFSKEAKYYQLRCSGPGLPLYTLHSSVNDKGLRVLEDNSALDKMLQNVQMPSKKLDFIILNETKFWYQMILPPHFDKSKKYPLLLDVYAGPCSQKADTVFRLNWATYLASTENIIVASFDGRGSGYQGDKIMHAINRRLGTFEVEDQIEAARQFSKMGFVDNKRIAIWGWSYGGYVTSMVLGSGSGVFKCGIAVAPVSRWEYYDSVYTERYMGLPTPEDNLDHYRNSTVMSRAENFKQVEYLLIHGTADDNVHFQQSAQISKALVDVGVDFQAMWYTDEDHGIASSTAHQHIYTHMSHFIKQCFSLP
Format: biochemical
Description: In Vitro DPP-IV Inhibitory Effect Measurement Test (2)
Human serum containing DPP-IV enzyme was used in an experiment after being diluted with assay buffer (25 mM Tris-HCl, 140 mM NaCl, 10 mM KCl, pH 7.9) (finally, diluted 10-fold). Each of solutions of each test compound having various concentrations was added to the diluted serum and the resulting mixture was incubated at room temperature. Then, a substrate (Glycyl-L-Proline 4-Methyl-Coumaryl-7-Amide, Peptide Laboratories Co., Ltd.) was added thereto to a final concentration of 100 μM and the reaction was carried out at room temperature.
as §1

Structure (SMILES)	IC50
N[C@@H]1CCCN(c2nc3c4cc(C(=O)O)ccc4[nH]c(=O)c3n2Cc2ccccc2Cl)C1 [Example 48, 2-{(3R)-3-Aminopiperidin-1-yl}-3-(2-chlorobenzyl)-4-oxo-4,5-dihydro-3H-imidazo[4,5-c]quinoline-8-carboxylic acid hydrochloride]	45 nM
Cn1c(=O)c2c(nc(N3CCC[C@@H](N)C3)n2Cc2ccccc2Cl)c2cc3c(cc21)C(=O)OC3 [Example 90, 2-[(3R)-3-Aminopiperidin-1-yl]-3-(2-chlorobenzyl)-5-methyl-5,9-dihydro-3H-furo[3,4-g]imidazo[4,5-c]quinoline-4,7-dione hydrochloride]	11 nM
COC(=O)c1c2c(nn1Cc1ccc(OC)cc1)c1nc(N3CCC[C@@H](N)C3)n(Cc3ccccc3Cl)c1c(=O)n2C [Example 94, Methyl 7-[(3R)-3-aminopiperidin-1-yl]-6-(2-chlorobenzyl)-2-(4-methoxybenzyl)-4-methyl-5-oxo-2,4,5,6-tetrahydroimidazo[4,5-d]pyrazolo[4,3-b]pyridine-3-carboxylate hydrochloride]	42 nM
Cn1c(=O)c2c(nc(N3CCC[C@@H](N)C3)n2Cc2ccccc2Cl)c2c(C(=O)O)c(F)ccc21 [Example 97, 2-[(3R)-3-aminopiperidin-1-yl]-3-(2-chlorobenzyl)-8-fluoro-5-methyl-4-oxo-4,5-dihydro-3H-imidazo[4,5-c]quinoline-9-carboxylic acid hydrochloride]	14 nM
Cn1c(=O)c2c(nc(N3CCC[C@@H](N)C3)n2Cc2ccccc2Cl)c2csc(C(=O)O)c21 [Example 102, 2-[(3R)-3-Aminopiperidin-1-yl]-3-(2-chlorobenzyl)-5-methyl-4-oxo-4,5-dihydro-3H-imidazo[4,5-d]thieno[3,4-b]pyridine-6-carboxylic acid hydrochloride]	12 nM
